The values that follow come from ChEMBL document CHEMBL5252561, “Evaluation of darunavir-derived HIV-1 protease inhibitors incorporating P2' amide-derivatives: Synthesis, biological evaluation and structural studies” (Bioorg Med Chem Lett, 2023).

One may read the IC50 as the midpoint of a concentration-inhibition curve. One may read the Ki as a measure of affinity in units of concentration, obtained from inhibition or displacement.

Assay [1] deals with Human immunodeficiency virus. The assay is described as follows: Antiviral activity against HIV LAI infected in human MT-2 cells assessed as inhibition of viral growth. The class given is functional, organism-based. The note with it: Human immunodeficiency virus 1, LAI, MT2.
Assay [2] has as its target Human immunodeficiency virus type 1 protease (Human immunodeficiency virus 1, UniProt Q72874). The assay is described as follows: Inhibition of HIV-1 protease using Abz-NF-6 as substrate assessed as inhibition constant measured every 2 mins for 20 mins by fluorescence based […] analysis.
The test system of assay [3] is Human immunodeficiency virus. The assay is described as follows: Potency index, ratio of test compound IC50 to darunavir IC50 for antiviral activity against HIV LAI infected in human MT-2 cells assessed as inhibition of viral growth. The format is functional, MT2.

For `CC(C)CN(C[C@@H](O)[C@H](Cc1ccccc1)NC(=O)O[C@H]1CO[C@H]2OCC[C@H]21)S(=O)(=O)c1ccc(N)cc1`, the concentration for half-maximal inhibition (IC50) in assay [1] stood at 1.6 nM.

Turning to `CC(C)CN(C[C@@H](O)[C@H](Cc1ccccc1)NC(=O)O[C@H]1CO[C@H]2OCC[C@H]21)S(=O)(=O)c1ccc(NC(=O)CN(C)C)cc1`, in assay [2], the Ki was 0.0015 nM. Moreover, the IC50 in assay [1] is more than 1000 nM.

As to `CC(C)CN(C[C@@H](O)[C@H](Cc1ccccc1)NC(=O)O[C@H]1CO[C@H]2OCC[C@H]21)S(=O)(=O)c1ccc(NC(=O)CN[C@H](C)c2ccccc2)cc1`, the Ki in assay [2] was found to be 0.0053 nM. Also, in assay [1], the IC50 turned out to be 39 nM.

As to `CC(C)CN(C[C@@H](O)[C@H](Cc1ccccc1)NC(=O)O[C@H]1CO[C@H]2OCC[C@H]21)S(=O)(=O)c1ccc(NC(=O)[C@@H](NC(=O)OC(C)(C)C)C(C)C)cc1`, in assay [2], the Ki was determined as 178 nM. For the same molecule, the IC50 in assay [1] came out at 540 nM.

For the molecule `CCN(CC)CC(=O)Nc1ccc(S(=O)(=O)N(CC(C)C)C[C@@H](O)[C@H](Cc2ccccc2)NC(=O)O[C@H]2CO[C@H]3OCC[C@H]32)cc1`, the inhibitory constant (Ki) in assay [2] is 0.302 nM. Besides, the concentration for half-maximal inhibition (IC50) in assay [1] was more than 1000 nM.

For `CC(C)CN(C[C@@H](O)[C@H](Cc1ccccc1)NC(=O)O[C@H]1CO[C@H]2OCC[C@H]21)S(=O)(=O)c1ccc(C(N)=O)cc1`, the IC50 in assay [1] was found to be 93 nM.

Consider `CC(C)CN(C[C@@H](O)[C@H](Cc1ccccc1)NC(=O)O[C@H]1CO[C@H]2OCC[C@H]21)S(=O)(=O)c1ccc(C(=O)O)cc1`, for which, in assay [1], the IC50 was more than 1000 nM.

For `CC(C)CN(C[C@@H](O)[C@H](Cc1ccccc1)NC(=O)O[C@H]1CO[C@H]2OCC[C@H]21)S(=O)(=O)c1ccc(NC(=O)[C@H](NC(=O)OC(C)(C)C)C(C)C)cc1`, in assay [2], the Ki came out at 337 nM. Moreover, the IC50 in assay [1] is 430 nM.

Take `CCNCC(=O)Nc1ccc(S(=O)(=O)N(CC(C)C)C[C@@H](O)[C@H](Cc2ccccc2)NC(=O)O[C@H]2CO[C@H]3OCC[C@H]32)cc1`: in assay [2], the Ki is 0.0091 nM. Besides, in assay [1], the half-inhibitory concentration (IC50) stood at 280 nM.

Take `CC(C)CN(C[C@@H](O)[C@H](Cc1ccccc1)NC(=O)O[C@H]1CO[C@H]2OCC[C@H]21)S(=O)(=O)c1ccc(NC(=O)CNC(=O)OC(C)(C)C)cc1`: the inhibition constant Ki in assay [2] stood at 310 nM.

For the molecule `CC(C)CN(C[C@@H](O)[C@H](Cc1ccccc1)NC(=O)O[C@H]1CO[C@H]2OCC[C@H]21)S(=O)(=O)c1ccc(NC(=O)[C@@H](N)C(C)C)cc1`, the inhibition constant Ki in assay [2] turned out to be 0.445 nM. Also, the concentration for half-maximal inhibition (IC50) in assay [1] was 25 nM.

For the molecule `CC(C)CN(C[C@@H](O)[C@H](Cc1ccccc1)NC(=O)O[C@H]1CO[C@H]2OCC[C@H]21)S(=O)(=O)c1ccc(NC(=O)CCl)cc1`, the inhibitory constant (Ki) in assay [2] came out at 0.0044 nM. Moreover, in assay [1], the half-maximal inhibitory concentration (IC50) stood at 32 nM.

For `CC(C)CN(C[C@@H](O)[C@H](Cc1ccccc1)NC(=O)O[C@H]1CO[C@H]2OCC[C@H]21)S(=O)(=O)c1ccc(NC(=O)CN)cc1`, the Ki in assay [2] stood at 0.0921 nM.

`CC(C)CN(C[C@@H](O)[C@H](Cc1ccccc1)NC(=O)O[C@H]1CO[C@H]2OCC[C@H]21)S(=O)(=O)c1ccc(NC(=O)CNC(C)C)cc1`: in assay [2], the Ki amounted to 0.388 nM. Also, the IC50 in assay [1] was found to be 31 nM.

For the molecule `CC(=O)Nc1ccc(S(=O)(=O)N(CC(C)C)C[C@@H](O)[C@H](Cc2ccccc2)NC(=O)O[C@H]2CO[C@H]3OCC[C@H]32)cc1`, the inhibition constant Ki in assay [2] was 0.0006 nM. Moreover, the 50% inhibitory concentration (IC50) in assay [1] stood at 29 nM. Also, in assay [3], the “Ratio IC50” value is 10.
